Reference: article PMC10732257 (Oncotarget, 2023)

Key:
MV-4-11 xenograft tumor = test: Western blot of CDK9-dependent protein expression in MV-4-11 xenograft tumor tissue; assay type: in vivo, female BALB/c nude mice; conditions: single dose 15 mg/kg i.v.
Experimental: Figure 9 Effect of GFH009 treatment on CDK9-dependent protein expression in vivo. Female BALB/c nude mice were subcutaneously inoculated with 5 × 10^6 MV-4-11 cells. […] The mice were euthanized, and tumor tissues were collected at different times after administration as indicated for western blot analysis. Three individual mice were selected from GFH009 treatment group.
In vivo protein expression was assessed via SDS-PAGE and western blotting of samples from female BALB/c nude mice following treatment with GHF009. […] When tumors reached approximately 600 mm^3 (Day 25), animals were randomly divided into two groups. Group 1 received a single dose of vehicle control. […] Both were administered via tail vein injection.
All mice were euthanized, and tumor tissues collected at required times following administration. Group 1 control animals were euthanized at 2 hours post-administration. Group 2 animals were euthanized at 1, 2, 4, 8, 24, and 48 hours after administration. Tumor tissue was harvested, weighed, and flash frozen in liquid nitrogen. Total proteins were extracted and analyzed by western blot to determine expression of phospho-Rpb1 CTD Ser2, RPB1, MYC, MCL-1, Cleaved Caspase-3, and vinculin. Image Studio V5.0 was used to analyze all western blot membrane images.

CDK13/cyclin K = biological target: T1, CDK13/cyclin K (Homo sapiens, UniProt Q14004); test: CDK family off-target kinase activity (Eurofins); assay type: biochemical
T1 construct: purchased Eurofins Pharma Discovery Services UK Ltd
Description: The pharmacodynamic and mechanistic foundation for the
CDK9 inhibitor for the treatment of hematologic malignancies
Supplementary Table 1: Inhibitory action of GFH009 on other CDK family members
Various CDK/ Remaining enzymatic activity (%) after
cognate cyclin pairs tested exposure to GFH009 at a concentration of Selectivity vs. CDK9
(also on this page, place not known: www.oncotarget.com Oncotarget, Materials Supplementary)
(1 picture or pasted object on this page, not shown here)

MV-4-11 xenograft = test: Anti-tumor efficacy in subcutaneous MV-4-11 xenograft model; assay type: in vivo, female BALB/c nude mice
Experimental: Figure 6 Anti-tumor efficacy of GFH009 in MV-4-11 xenograft model. MV-4-11 xenograft in female BALB/c nude mice were treated with GFH009 or enitociclib at the indicated doses (n = 8 mice per group). Results are expressed as mean ± SEM. ^* P < 0.05, ^**** P < 0.0001, two-way ANOVA with Dunnett’s multiple comparisons test analysis compared to Vehicle control group.
In vivo studies of tumor suppression were conducted in female BALB/c nude mice (Beijing Vital River Laboratory Animal Technology Co, Ltd., Changping, Beijing, China) bearing MV-4-11 xenografts (ATCC, Rockville, MD, USA). Each mouse was inoculated subcutaneously into the right dorsal-region with 5.0 × 10^6 cultured MV-4-11 cells in a total volume of 0.2 ml solution and allowed to develop xenograft tumors. Once tumor size had reached […], mice were divided into groups to receive 1 of 8 different treatment preparations dosed intravenously via the tail vein (Table 2). […] Enitociclib was administered as a 1.0 mg/mL solution in ultrapure water with 5% DMSO. Vehicle control was 50 mM PBS with no dissolved treatment drug.
(§1) Animals dosed BIW were given treatments on 2 consecutive days. Weights were recorded for each mouse every day and tumor volumes assessed 3 times a week. Total treatment administration occurred across 3 consecutive weeks.
Subcutaneous tumor volume (TV) was calculated as TV = (L × W^2)/2, where L was the length and W was the width of the tumor [11]. […] TGI was calculated as TGI (%) = (1 – avTi-0/ avCi-0)) × 100, where avTi-0 is the mean TV of the treatment group on a given day minus the mean TV of this treatment group on the day of group assignment, and avCi-0 is the mean TV of the vehicle control group on a given day minus the mean TV of the vehicle control group on the day of group assignment.
Tumor volume data was subjected to a base-10 logarithmic transformation and subsequent comparisons of TV across groups was made using two-way ANOVA (Dunnett’s multiple comparisons test). All plotting and statistical analyses were conducted using GraphPad Prism 6.00 (GraphPad Software).

V1A (vasopressin) = V1A (vasopressin) (Homo sapiens, UniProt P37288); test: GPCR agonist action testing; assay type: cell-based
Description: (§2) Supplementary Table 2: Results of GPCR agonist action testing of GFH009 administered at a
(§3) Agonist action against GPCR type shown below
(§4) Target % Agonist Effect @ Max Dose
(§5) M1 (muscarinic Ach) −2.18
(§6) M2 (muscarinic Ach) −0.63

b2 (adrenoceptor) = biological target: T2, b2 (adrenoceptor) (Homo sapiens, UniProt P07550); test: GPCR agonist action testing; assay type: cell-based
T2 construct: Wuxi AppTech (contract laboratory)
Description: as §2, §3, §4, §5, §6

op-k (opioid) = op-k (opioid) (Homo sapiens, UniProt P41145); test: GPCR agonist action testing; assay type: cell-based
Description: as §2, §3, §4, §5, §6

op-m (opioid) = op-m (opioid) (Homo sapiens, UniProt P35372); test: GPCR agonist action testing; assay type: cell-based
Description: as §2, §3, §4, §5, §6

M2 (muscarinic Ach) = M2 (muscarinic Ach) (Homo sapiens, UniProt P08172); test: GPCR agonist action testing; assay type: cell-based
Description: as §2, §3, §4, §5, §6

a1a (adrenoceptor) = biological target: T3, a1a (adrenoceptor) (Homo sapiens, UniProt P35348); test: GPCR agonist action testing; assay type: cell-based
T3 construct: Wuxi AppTech (contract laboratory)
Description: as §2, §3, §4, §5, §6

CB1 (cannabinoid) = biological target: T4, CB1 (cannabinoid) (Homo sapiens, UniProt P21554); test: GPCR agonist action testing; assay type: cell-based
T4 construct: Wuxi AppTech (contract laboratory)
Description: as §2, §3, §4, §5, §6

op-d (opioid) = op-d (opioid) (Homo sapiens, UniProt P41143); test: GPCR agonist action testing; assay type: cell-based
Description: as §2, §3, §4, §5, §6

5-HT1B (serotonin) = biological target: T5, 5-HT1B (serotonin) (Homo sapiens, UniProt P28222); test: GPCR agonist action testing; assay type: cell-based
T5 construct: Wuxi AppTech (Shanghai, China)
Description: as §2, §3, §4, §5, §6

D1 (dopamine) = biological target: T6, D1 (dopamine) (Homo sapiens, UniProt P21728); test: GPCR agonist action testing; assay type: cell-based
T6 construct: Wuxi AppTech (contract laboratory)
Description: as §2, §3, §4, §5, §6

ETA (endothelin) = biological target: T7, ETA (endothelin) (Homo sapiens, UniProt P25101); test: GPCR agonist action testing; assay type: cell-based
T7 construct: Wuxi AppTech (contract laboratory)
Description: as §2, §3, §4, §5, §6

[1] = Body weight change in MV-4-11 xenograft mice; assay type: in vivo, female BALB/c nude mice; conditions: all GFH009 treatment groups; through Day 28
Experimental: Figure 7 Effect of GFH009 on body weight change in MV-4-11 xenografts. Body weight change of MV-4-11 xenograft (Figure 6) are expressed as mean ± SEM. ^* […], ^** P < 0.01, ^**** P < 0.0001, two-way ANOVA with Dunnett’s multiple comparisons test analysis compared to the vehicle-treated (control) group.
as §1
Relative change in body weight (RCBW) was determined as RCBW (%) = (Bwi – BW0)/BW0 × 100, where Bwi is body weight of a given mouse on a given day, and BW0 is initial body weight on the day they were assigned to a treatment group.

T1 sequence (Q14004 whole entry): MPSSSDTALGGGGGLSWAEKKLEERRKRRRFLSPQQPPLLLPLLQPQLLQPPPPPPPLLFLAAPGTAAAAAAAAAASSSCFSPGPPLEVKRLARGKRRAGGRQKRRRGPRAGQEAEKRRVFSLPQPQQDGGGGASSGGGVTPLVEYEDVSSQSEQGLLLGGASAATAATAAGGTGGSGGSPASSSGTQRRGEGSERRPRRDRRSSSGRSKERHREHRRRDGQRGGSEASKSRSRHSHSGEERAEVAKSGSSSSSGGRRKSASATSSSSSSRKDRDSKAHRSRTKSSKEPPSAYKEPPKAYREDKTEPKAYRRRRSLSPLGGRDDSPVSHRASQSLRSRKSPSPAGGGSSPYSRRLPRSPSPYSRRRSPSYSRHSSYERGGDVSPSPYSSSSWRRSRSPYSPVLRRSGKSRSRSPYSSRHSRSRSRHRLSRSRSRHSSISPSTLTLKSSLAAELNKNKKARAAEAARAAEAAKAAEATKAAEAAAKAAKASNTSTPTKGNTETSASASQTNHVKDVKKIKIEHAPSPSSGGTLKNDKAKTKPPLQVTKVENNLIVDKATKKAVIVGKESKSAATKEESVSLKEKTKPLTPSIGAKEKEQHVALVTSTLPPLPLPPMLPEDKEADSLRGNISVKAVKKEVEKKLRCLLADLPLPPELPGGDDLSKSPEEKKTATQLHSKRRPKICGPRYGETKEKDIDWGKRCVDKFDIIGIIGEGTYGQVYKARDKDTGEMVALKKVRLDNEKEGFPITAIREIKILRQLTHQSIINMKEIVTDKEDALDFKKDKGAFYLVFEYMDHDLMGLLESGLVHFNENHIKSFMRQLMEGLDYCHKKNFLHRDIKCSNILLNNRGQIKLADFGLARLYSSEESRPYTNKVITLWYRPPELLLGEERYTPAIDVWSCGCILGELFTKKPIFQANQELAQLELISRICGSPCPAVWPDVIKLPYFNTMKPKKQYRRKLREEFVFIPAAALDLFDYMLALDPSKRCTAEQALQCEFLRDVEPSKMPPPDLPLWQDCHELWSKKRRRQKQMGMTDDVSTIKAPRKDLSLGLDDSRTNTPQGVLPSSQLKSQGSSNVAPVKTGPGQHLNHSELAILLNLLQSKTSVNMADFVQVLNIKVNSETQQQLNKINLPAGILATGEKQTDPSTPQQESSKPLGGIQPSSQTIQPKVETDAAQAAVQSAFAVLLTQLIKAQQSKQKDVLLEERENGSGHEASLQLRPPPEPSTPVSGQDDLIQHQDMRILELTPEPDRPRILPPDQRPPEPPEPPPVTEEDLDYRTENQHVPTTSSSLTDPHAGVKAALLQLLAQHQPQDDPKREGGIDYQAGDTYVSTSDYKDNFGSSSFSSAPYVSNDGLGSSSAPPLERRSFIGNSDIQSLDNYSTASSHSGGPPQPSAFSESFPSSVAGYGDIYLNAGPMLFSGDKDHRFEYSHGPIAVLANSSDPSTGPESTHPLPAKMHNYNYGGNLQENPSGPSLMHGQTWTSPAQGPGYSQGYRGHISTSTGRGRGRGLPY
T1 sequence (O75909 whole entry partner): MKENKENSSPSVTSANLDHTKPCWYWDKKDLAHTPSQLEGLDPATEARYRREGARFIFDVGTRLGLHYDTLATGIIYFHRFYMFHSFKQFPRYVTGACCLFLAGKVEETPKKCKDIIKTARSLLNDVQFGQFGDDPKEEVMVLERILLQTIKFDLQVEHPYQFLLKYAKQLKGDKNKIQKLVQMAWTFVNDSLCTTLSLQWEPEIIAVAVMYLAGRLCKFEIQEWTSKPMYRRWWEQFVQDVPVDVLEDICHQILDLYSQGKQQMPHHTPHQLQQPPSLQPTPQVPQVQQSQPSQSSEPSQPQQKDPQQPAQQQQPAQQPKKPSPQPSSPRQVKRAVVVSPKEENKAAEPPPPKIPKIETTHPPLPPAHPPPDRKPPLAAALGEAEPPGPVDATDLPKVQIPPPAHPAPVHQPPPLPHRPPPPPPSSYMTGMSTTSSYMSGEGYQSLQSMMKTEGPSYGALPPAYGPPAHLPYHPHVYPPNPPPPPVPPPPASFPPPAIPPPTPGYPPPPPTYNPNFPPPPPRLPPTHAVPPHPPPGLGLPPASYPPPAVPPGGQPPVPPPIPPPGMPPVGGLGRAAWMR
Sequence of V1A (vasopressin) (P37288 whole entry): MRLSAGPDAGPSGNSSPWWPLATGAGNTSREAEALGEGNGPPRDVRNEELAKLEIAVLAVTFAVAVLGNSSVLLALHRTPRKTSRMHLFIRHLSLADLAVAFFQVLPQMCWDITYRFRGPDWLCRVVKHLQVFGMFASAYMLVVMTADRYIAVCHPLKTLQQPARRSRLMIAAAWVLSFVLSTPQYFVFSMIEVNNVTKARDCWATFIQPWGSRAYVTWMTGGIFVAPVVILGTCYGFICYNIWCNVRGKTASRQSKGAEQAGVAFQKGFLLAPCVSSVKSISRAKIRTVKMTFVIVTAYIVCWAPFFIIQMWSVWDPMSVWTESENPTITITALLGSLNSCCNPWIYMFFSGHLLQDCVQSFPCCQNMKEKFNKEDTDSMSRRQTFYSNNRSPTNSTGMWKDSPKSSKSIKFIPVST
T5 sequence (P28222 whole entry, species assumed): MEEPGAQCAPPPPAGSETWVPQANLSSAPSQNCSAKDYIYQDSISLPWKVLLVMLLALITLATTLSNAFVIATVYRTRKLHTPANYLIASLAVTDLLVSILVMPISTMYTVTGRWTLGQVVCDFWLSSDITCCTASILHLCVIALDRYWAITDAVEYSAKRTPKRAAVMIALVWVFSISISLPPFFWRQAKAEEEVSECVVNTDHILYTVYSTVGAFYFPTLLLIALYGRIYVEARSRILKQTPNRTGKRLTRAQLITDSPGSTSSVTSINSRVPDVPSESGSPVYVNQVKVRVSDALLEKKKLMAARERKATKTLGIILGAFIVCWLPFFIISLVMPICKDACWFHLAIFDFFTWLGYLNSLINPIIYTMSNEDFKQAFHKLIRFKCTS
Sequence of op-k (opioid) (P41145 whole entry): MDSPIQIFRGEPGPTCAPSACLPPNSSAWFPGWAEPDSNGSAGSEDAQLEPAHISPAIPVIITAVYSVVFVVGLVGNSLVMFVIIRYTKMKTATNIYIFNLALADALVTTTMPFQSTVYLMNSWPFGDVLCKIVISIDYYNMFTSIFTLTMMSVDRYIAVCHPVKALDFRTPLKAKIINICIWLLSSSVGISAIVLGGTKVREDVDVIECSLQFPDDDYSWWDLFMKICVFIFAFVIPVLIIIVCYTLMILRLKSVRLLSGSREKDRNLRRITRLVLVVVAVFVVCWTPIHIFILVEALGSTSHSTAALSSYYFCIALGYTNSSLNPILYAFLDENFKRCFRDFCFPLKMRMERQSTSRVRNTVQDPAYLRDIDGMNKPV
T2 sequence (P07550 whole entry): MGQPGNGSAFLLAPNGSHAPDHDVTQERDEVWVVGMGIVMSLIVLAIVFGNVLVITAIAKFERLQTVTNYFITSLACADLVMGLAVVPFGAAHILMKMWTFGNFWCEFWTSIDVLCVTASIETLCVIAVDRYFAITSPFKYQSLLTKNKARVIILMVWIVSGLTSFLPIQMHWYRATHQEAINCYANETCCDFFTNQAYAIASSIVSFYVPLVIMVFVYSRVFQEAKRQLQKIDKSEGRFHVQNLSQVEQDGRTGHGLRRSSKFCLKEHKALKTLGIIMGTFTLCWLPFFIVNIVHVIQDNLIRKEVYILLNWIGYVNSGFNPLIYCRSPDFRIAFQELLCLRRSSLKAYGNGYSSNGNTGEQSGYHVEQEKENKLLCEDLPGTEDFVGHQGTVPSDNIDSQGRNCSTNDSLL
T4 sequence (P21554 whole entry, species assumed): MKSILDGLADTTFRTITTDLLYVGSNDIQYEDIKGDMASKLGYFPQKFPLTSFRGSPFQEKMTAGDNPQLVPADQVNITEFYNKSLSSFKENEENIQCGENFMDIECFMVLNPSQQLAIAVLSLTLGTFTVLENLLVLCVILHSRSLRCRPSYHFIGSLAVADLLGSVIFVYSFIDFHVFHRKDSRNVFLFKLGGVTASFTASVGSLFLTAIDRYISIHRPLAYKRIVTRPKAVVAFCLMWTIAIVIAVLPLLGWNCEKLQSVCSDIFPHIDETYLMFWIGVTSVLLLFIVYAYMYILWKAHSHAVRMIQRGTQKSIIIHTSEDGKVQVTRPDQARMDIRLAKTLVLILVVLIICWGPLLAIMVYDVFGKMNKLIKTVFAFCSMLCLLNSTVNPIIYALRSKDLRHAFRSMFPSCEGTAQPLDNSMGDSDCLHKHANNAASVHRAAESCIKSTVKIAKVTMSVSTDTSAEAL
T6 sequence (P21728 whole entry): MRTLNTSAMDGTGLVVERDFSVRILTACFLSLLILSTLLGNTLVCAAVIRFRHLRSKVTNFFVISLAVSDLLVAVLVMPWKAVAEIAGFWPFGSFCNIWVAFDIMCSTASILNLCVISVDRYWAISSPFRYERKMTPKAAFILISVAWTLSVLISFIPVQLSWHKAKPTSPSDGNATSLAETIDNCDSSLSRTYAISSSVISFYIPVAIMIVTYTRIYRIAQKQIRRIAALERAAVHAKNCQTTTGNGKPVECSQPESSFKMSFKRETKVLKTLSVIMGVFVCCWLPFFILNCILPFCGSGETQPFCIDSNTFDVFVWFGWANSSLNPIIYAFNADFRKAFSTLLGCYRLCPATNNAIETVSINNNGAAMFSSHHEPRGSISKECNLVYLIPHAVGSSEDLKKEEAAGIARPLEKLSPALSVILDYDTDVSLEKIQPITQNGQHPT
Sequence of op-d (opioid) (P41143 whole entry): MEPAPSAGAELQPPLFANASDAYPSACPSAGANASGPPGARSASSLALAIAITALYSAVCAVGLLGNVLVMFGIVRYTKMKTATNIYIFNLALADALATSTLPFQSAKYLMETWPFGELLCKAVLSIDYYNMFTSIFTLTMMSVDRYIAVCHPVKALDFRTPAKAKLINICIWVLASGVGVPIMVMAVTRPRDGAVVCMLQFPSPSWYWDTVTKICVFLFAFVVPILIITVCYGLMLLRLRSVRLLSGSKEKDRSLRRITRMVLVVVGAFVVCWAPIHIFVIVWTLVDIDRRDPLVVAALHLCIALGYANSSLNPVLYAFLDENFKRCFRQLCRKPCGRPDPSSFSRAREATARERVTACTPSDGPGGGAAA

## COC[C@@H](C)NC1CCC(Nc2cc(-c3csc(NCC4(C#N)CCOCC4)n3)c(Cl)cn2)CC1 (stereo partly shown) [GFH009]
MV-4-11 xenograft tumor; from 2 hours through 48-hour time point
  Levels of MCL-1 and MYC in tumor: began to decrease significantly
MV-4-11 xenograft tumor; from one hour through 48 hours post-administration
  Expression of p-Rpb1 phospho-Ser2 in tumor: began to decrease significantly
CDK13/cyclin K
  Selectivity vs. CDK9: > 1000
CDK13/cyclin K; 1 µM
  Remaining enzymatic activity (%) after exposure to GFH009: 93%
CDK13/cyclin K; 10 µM
  Remaining enzymatic activity (%) after exposure to GFH009: 88%
MV-4-11 xenograft; 10.0 mg/kg i.v., through day 29
  Tumor total volume at 10.0 mg/kg: consistent reduction in total volume
MV-4-11 xenograft; i.v., GFH009 maleate 2.5, 5.0, 10.0 mg/kg QW or BIW, enitociclib 10.0 mg/kg QW, 3 weeks
  Tumor growth (total volume) compared to the vehicle control: tumor growth inhibition
V1A (vasopressin)
  % Agonist Effect @ Max Dose (12 µM): 0.59%
b2 (adrenoceptor)
  % Agonist Effect @ Max Dose (12 µM): −0.6%
op-k (opioid)
  % Agonist Effect @ Max Dose (12 µM): 21.57%
op-m (opioid)
  % Agonist Effect @ Max Dose (12 µM): 0.71%
M2 (muscarinic Ach)
  % Agonist Effect @ Max Dose (12 µM): −0.63%
a1a (adrenoceptor)
  % Agonist Effect @ Max Dose (12 µM): 4.58%
CB1 (cannabinoid)
  % Agonist Effect @ Max Dose (12 µM): −0.7%
op-d (opioid)
  % Agonist Effect @ Max Dose (12 µM): −0.98%
5-HT1B (serotonin)
  % Agonist Effect @ Max Dose (12 µM): −51.01%
D1 (dopamine)
  % Agonist Effect @ Max Dose (12 µM): −1.49%
ETA (endothelin)
  % Agonist Effect @ Max Dose (12 µM): −0.08%
[1]
  Relative change in body mass (RCBW%) vs initial: ≤ 5%
